Experimental data taken from US9550782B2, “Compounds and methods for treating diabetes” (Medivation Technologies, Inc., priority 2011, dated 2017).

Tests used:
[1] = target: T1, rat adrenergic α1B receptor (Rattus norvegicus, UniProt P15823); assay: Radioligand binding, adrenergic α1B ([3H]Prazosin); parameters: species or system Wistar Rat; conditions: compound at 0.1 μM, repeat datapoints each shown, 0.1 µM
T1 construct: rat adrenergic α1B receptor obtained from Wistar Rat liver; from tissue; host or cells: Wistar rat liver
T1 sequence (P15823 1-515): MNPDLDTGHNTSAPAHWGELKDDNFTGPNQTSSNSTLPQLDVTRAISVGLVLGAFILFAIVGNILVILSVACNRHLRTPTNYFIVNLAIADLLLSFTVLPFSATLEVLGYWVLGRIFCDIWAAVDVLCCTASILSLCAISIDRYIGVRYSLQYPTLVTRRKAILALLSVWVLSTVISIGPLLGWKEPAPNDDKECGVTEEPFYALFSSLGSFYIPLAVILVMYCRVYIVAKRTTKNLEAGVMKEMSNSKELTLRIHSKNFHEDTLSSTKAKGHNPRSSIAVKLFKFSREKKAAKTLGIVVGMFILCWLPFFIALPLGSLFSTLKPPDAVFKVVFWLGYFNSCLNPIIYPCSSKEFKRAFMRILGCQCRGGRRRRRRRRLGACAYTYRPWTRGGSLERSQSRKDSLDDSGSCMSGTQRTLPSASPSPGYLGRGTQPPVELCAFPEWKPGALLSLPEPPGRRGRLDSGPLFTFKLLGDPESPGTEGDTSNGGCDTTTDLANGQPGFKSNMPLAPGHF
Method in brief: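 Specific binding, taken as total minus that remaining with 10 μM phentolamine, is measured after filtration and counting. Rat liver receptor preparation and 0.25 nM [3H]prazosin are incubated with compound in 50 mM Tris-HCl (pH 7.4, 0.5 mM EDTA) at 25° C for 60 min. Activity is reported as percent inhibition.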

[2] = target: T2, human recombinant adrenergic α2A receptor (Homo sapiens, UniProt P08913); assay: Radioligand binding, adrenergic α2A ([3H]MK-912); conditions: compound at 0.1 μM; [3H]MK-912; repeat datapoints each shown; 0.1 µM
T2 construct: expressed in transfected cells; host or cells: insect Sf9 cells
T2 sequence (P08913 1-465): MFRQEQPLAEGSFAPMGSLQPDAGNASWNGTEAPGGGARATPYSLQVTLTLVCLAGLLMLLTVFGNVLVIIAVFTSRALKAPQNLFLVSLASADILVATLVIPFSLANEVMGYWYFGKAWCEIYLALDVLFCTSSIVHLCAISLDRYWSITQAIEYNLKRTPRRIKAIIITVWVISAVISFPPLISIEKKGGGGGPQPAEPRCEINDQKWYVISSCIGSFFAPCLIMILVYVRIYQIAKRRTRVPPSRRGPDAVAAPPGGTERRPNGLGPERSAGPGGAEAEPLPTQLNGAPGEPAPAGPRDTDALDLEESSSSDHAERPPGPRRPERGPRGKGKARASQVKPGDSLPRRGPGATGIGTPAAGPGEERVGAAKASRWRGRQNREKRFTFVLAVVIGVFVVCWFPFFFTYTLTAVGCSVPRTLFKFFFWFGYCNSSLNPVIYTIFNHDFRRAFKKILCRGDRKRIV
Method in brief: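 Receptor expressed in Sf9 cells, in 50 mM Tris-HCl pH 7.4, 12.5 mM MgCl2, 2 mM EDTA; compounds incubated with 1 nM [3H]MK-912 for 60 min at 25 °C.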

[3] = target: T3, human recombinant adrenergic α2B receptor (Homo sapiens, UniProt P18089); assay: Radioligand binding, adrenergic α2B ([3H]Rauwolscine); conditions: compound at 0.03 μM, repeat datapoints each shown, 0.03 µM
T3 construct: expressed in transfected cells; host or cells: CHO-K1
T3 sequence (P18089 1-450): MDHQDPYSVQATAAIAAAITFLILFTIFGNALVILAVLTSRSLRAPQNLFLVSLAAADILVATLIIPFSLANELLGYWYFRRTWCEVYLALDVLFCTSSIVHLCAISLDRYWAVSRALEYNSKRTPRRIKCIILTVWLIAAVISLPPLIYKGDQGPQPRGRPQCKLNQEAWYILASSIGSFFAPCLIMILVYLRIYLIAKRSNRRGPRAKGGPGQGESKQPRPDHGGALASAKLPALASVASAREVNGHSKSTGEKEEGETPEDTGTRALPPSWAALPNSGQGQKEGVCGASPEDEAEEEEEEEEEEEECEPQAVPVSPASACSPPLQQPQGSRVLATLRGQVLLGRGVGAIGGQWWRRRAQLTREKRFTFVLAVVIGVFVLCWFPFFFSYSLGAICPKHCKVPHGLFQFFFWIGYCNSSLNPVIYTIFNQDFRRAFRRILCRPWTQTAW
Method in brief: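 Receptor expressed in CHO-K1 cells, assayed in 50 mM Tris-HCl pH 7.4 with 12.5 mM MgCl2, 1 mM EDTA and 0.2% BSA. Compounds were incubated with 2.5 nM [3H]Rauwolscine for 60 min at 25° C; 10 μM Prazosin defined non-specific binding. Filter counting gave percent inhibition of specific binding.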

CN1CCc2c(c3ccc(C(F)(F)F)cc3n2CC(O)c2cccnc2)C1 (single isomer, unassigned) [40a]
Percentage inhibition of ligand binding, Adrenergic α1B (0.1 μM) [1]: 2% | Percentage inhibition of ligand binding, Adrenergic α2A (0.1 μM) [2]: 7% | Percentage inhibition of ligand binding, Adrenergic α2B (0.03 μM) [3]: 27%

CN1CCc2c(c3ccc(C(F)(F)F)cc3n2CC(O)c2cccnc2)C1 (single isomer, unassigned) [40b]
Percentage inhibition of ligand binding, Adrenergic α1B (0.1 μM) [1]: −2% | Percentage inhibition of ligand binding, Adrenergic α2A (0.1 μM) [2]: 13% | Percentage inhibition of ligand binding, Adrenergic α2B (0.03 μM) [3]: 29%

CN1CCc2c(n(CC(O)c3ccncc3)c3ccc(Cl)cc23)C1 (single isomer, unassigned) [41a]
Percentage inhibition of ligand binding, Adrenergic α1B (0.1 μM) [1]: 43% | Percentage inhibition of ligand binding, Adrenergic α2A (0.1 μM) [2]: −9% | Percentage inhibition of ligand binding, Adrenergic α2B (0.03 μM) [3]: 14%

CN1CCc2c(n(CC(O)c3ccncc3)c3ccc(Cl)cc23)C1 (single isomer, unassigned) [41b]
Percentage inhibition of ligand binding, Adrenergic α1B (0.1 μM) [1]: 50% | Percentage inhibition of ligand binding, Adrenergic α2A (0.1 μM) [2]: 8% | Percentage inhibition of ligand binding, Adrenergic α2B (0.03 μM) [3]: 50%

CN1CCc2c(c3cccc(Cl)c3n2CC(O)c2ccncc2)C1 (single isomer, unassigned) [45a]
Percentage inhibition of ligand binding, Adrenergic α1B (0.1 μM) [1]: 23% | Percentage inhibition of ligand binding, Adrenergic α2A (0.1 μM) [2]: −4% | Percentage inhibition of ligand binding, Adrenergic α2B (0.03 μM) [3]: 54%

CN1CCc2c(c3cccc(Cl)c3n2CC(O)c2ccncc2)C1 (single isomer, unassigned) [45b]
Percentage inhibition of ligand binding, Adrenergic α1B (0.1 μM) [1]: 24% | Percentage inhibition of ligand binding, Adrenergic α2A (0.1 μM) [2]: 16% | Percentage inhibition of ligand binding, Adrenergic α2B (0.03 μM) [3]: 96%

Cc1ccc2c(c1)c1c(n2CC(O)c2ccncc2)CCN2CCCCC12 (single isomer, unassigned) [47a]
Percentage inhibition of ligand binding, Adrenergic α1B (0.1 μM) [1]: 58% | Percentage inhibition of ligand binding, Adrenergic α2A (0.1 μM) [2]: 10% | Percentage inhibition of ligand binding, Adrenergic α2B (0.03 μM) [3]: 40%

Cc1ccc2c(c1)c1c(n2CC(O)c2ccncc2)CCN2CCCCC12 (single isomer, unassigned) [47b]
Percentage inhibition of ligand binding, Adrenergic α1B (0.1 μM) [1]: 70% | Percentage inhibition of ligand binding, Adrenergic α2A (0.1 μM) [2]: 41% | Percentage inhibition of ligand binding, Adrenergic α2B (0.03 μM) [3]: 119%

Cc1ccc2c(c1)c1c(n2CC(O)c2ccncc2)CCN2CCCCC12 (single isomer, unassigned) [47c]
Percentage inhibition of ligand binding, Adrenergic α1B (0.1 μM) [1]: 6% | Percentage inhibition of ligand binding, Adrenergic α2A (0.1 μM) [2]: 4% | Percentage inhibition of ligand binding, Adrenergic α2B (0.03 μM) [3]: 53%

Cc1ccc2c(c1)c1c(n2CC(O)c2ccncc2)CCN2CCCCC12 (single isomer, unassigned) [47d]
Percentage inhibition of ligand binding, Adrenergic α1B (0.1 μM) [1]: 5% | Percentage inhibition of ligand binding, Adrenergic α2A (0.1 μM) [2]: −3% | Percentage inhibition of ligand binding, Adrenergic α2B (0.03 μM) [3]: 30%

CN1CCc2c(c3cccc(Br)c3n2CC(O)c2ccncc2)C1 (single isomer, unassigned) [48a]
Percentage inhibition of ligand binding, Adrenergic α1B (0.1 μM) [1]: 16% | Percentage inhibition of ligand binding, Adrenergic α2A (0.1 μM) [2]: 12% | Percentage inhibition of ligand binding, Adrenergic α2B (0.03 μM) [3]: 58%

CN1CCc2c(c3cccc(Br)c3n2CC(O)c2ccncc2)C1 (single isomer, unassigned) [48b]
Percentage inhibition of ligand binding, Adrenergic α1B (0.1 μM) [1]: 14% | Percentage inhibition of ligand binding, Adrenergic α2A (0.1 μM) [2]: 17% | Percentage inhibition of ligand binding, Adrenergic α2B (0.03 μM) [3]: 86%

Cc1ccc2c(c1)c1c(n2CC(C)(O)c2ccc[n+]([O-])c2)CCN(C)C1 (single isomer, unassigned) [56a]
Percentage inhibition of ligand binding, Adrenergic α1B (0.1 μM) [1]: 1% | Percentage inhibition of ligand binding, Adrenergic α2A (0.1 μM) [2]: 11% | Percentage inhibition of ligand binding, Adrenergic α2B (0.03 μM) [3]: 20%

Cc1ccc2c(c1)c1c(n2CC(C)(O)c2ccc[n+]([O-])c2)CCN(C)C1 (single isomer, unassigned) [56b]
Percentage inhibition of ligand binding, Adrenergic α1B (0.1 μM) [1]: 6% | Percentage inhibition of ligand binding, Adrenergic α2A (0.1 μM) [2]: 17% | Percentage inhibition of ligand binding, Adrenergic α2B (0.03 μM) [3]: 28%

CN1CCc2c(c3cc(C(F)(F)F)ccc3n2CC(O)c2cccnc2)C1 (single isomer, unassigned) [59a]
Percentage inhibition of ligand binding, Adrenergic α1B (0.1 μM) [1]: 11% | Percentage inhibition of ligand binding, Adrenergic α2A (0.1 μM) [2]: 18% | Percentage inhibition of ligand binding, Adrenergic α2B (0.03 μM) [3]: 15%

CN1CCc2c(c3cc(C(F)(F)F)ccc3n2CC(O)c2cccnc2)C1 (single isomer, unassigned) [59b]
Percentage inhibition of ligand binding, Adrenergic α1B (0.1 μM) [1]: 7% | Percentage inhibition of ligand binding, Adrenergic α2A (0.1 μM) [2]: 12% | Percentage inhibition of ligand binding, Adrenergic α2B (0.03 μM) [3]: 31%

Cc1ccc2c(c1)c1c(n2CC(O)c2cc[n+]([O-])cc2)CCN(C)C1 (single isomer, unassigned) [69a]
Percentage inhibition of ligand binding, Adrenergic α1B (0.1 μM) [1]: 4% | Percentage inhibition of ligand binding, Adrenergic α2A (0.1 μM) [2]: 11% | Percentage inhibition of ligand binding, Adrenergic α2B (0.03 μM) [3]: 10%

Cc1ccc2c(c1)c1c(n2CC(O)c2cc[n+]([O-])cc2)CCN(C)C1 (single isomer, unassigned) [69b]
Percentage inhibition of ligand binding, Adrenergic α1B (0.1 μM) [1]: 8% | Percentage inhibition of ligand binding, Adrenergic α2A (0.1 μM) [2]: 7% | Percentage inhibition of ligand binding, Adrenergic α2B (0.03 μM) [3]: 19%

Cc1ccc2c(c1)c1c(n2CC(O)c2ccncc2)CC2CCCN2C1 (single isomer, unassigned) [76a]
Percentage inhibition of ligand binding, Adrenergic α1B (0.1 μM) [1]: 78% | Percentage inhibition of ligand binding, Adrenergic α2A (0.1 μM) [2]: 21% | Percentage inhibition of ligand binding, Adrenergic α2B (0.03 μM) [3]: 92%

Cc1ccc2c(c1)c1c(n2CC(O)c2ccncc2)CC2CCCN2C1 (single isomer, unassigned) [76b]
Percentage inhibition of ligand binding, Adrenergic α1B (0.1 μM) [1]: 71% | Percentage inhibition of ligand binding, Adrenergic α2A (0.1 μM) [2]: 18% | Percentage inhibition of ligand binding, Adrenergic α2B (0.03 μM) [3]: 34%

Cc1ccc2c(c1)c1c(n2CC(O)c2ccncc2)CC2CCCN2C1 (single isomer, unassigned) [76c]
Percentage inhibition of ligand binding, Adrenergic α1B (0.1 μM) [1]: 33% | Percentage inhibition of ligand binding, Adrenergic α2A (0.1 μM) [2]: 5% | Percentage inhibition of ligand binding, Adrenergic α2B (0.03 μM) [3]: 35%

Cc1ccc2c(c1)c1c(n2CC(O)c2ccncc2)CC2CCCN2C1 (single isomer, unassigned) [76d]
Percentage inhibition of ligand binding, Adrenergic α1B (0.1 μM) [1]: 51% | Percentage inhibition of ligand binding, Adrenergic α2A (0.1 μM) [2]: 40% | Percentage inhibition of ligand binding, Adrenergic α2B (0.03 μM) [3]: 91%
